The values below come from patent publication US8614203B2, “Methods for the treatment of a central nervous system injury via a tapered administration protocol” (Emory University, priority 2005, dated 2013).

Data set [1] has as its system medial frontal cortex injury. Put plainly: Example 3: lesion reconstruction (lesion volume). Particulars: tapered withdrawal, injured (TWI). It counts as in vivo, Sprague-Dawley rats. The method, then: (§1) Male Sprague-Dawley rats received either medial frontal cortex injury or sham surgery. Injections were given 1 and 6 hours post-injury, and every 24 hours for 7 days. Treatment groups (n=8) encompassed injured (I) and sham (S) acute withdrawal (AW), tapered withdrawal (TW) and vehicle (V) treatments. TW injections were progressively halved over the final two treatments. Behavioral testing was conducted post-surgery, mid- and post-withdrawal. Activity boxes were used to investigate vertical movements and exploration: Sensory neglect and anxiety behaviors were also analyzed. Brain harvesting was performed at 8 days or 3 weeks post-injury. Perfused tissue sections were analyzed for lesion volume and immunohistochemical response. Fresh brain tissue was flash frozen in chilled 2-methyl butane, and then homogenized for Western blot analysis.

In another data set the test system is ischemic injury. Particulars: following ischemic injury in rats (Jiang et al. 1996); cited from earlier work.
For data set [2], the system named is traumatic brain injury. Put plainly: Example 2: dose response, sticker removal task (sensory neglect) after TBI, cyclodextrin vehicle. The class given is in vivo. The method, then:
[…] Pairs of circular adhesive papers (2 cm dia) were attached to the distal-radial areas of each forepaw and the rats' latencies to remove the stimuli were recorded. Each rat was given four trials (2-min ITI) per testing period with a maximum trial length of 2 minutes.
(§2) Surgery to induce a traumatic brain injury was performed as outlined in Example 1. Behavior testing using the Morris Water Maize was performed as outlined in Example 1 and the methods for the tactical adhesive removal were performed.

For data set [3], the system named is HSP70. Put plainly: Example 4: Western blotting densitometry, HSP70. The class given is in vivo, Sprague-Dawley rats. The source says:
(§3) 60 male Sprague-Dawley rats weighing 290-310 g at the time of injury were used in this experiment. Food and water were provided ad libidum before and after surgery. Animals were handled and weighed daily from their arrival, seven days pre-surgery, to brain extraction three weeks post-surgery. Animals were handled in squads of 12, with n=10 per experimental condition. All animal procedures were approved by the Emory University Animal Care and Use Committee, Protocol #131-2002.
(§4) Isofluorane anesthesia was induced for four minutes and 45 seconds at 5% and maintained at 2.5%. Normal body temperature was maintained with a surgical heating pad placed beneath the sterile dressings. The scalp incision area was shaved and sterilized with iodine and isopropanol. A midline incision was made along the scalp and the fascia cleared to expose the surface of the skull. Medial, lateral, and dorsal stereotaxic coordinates were determined at bregma, and a 5-7 mm diameter bilateral craniotomy was performed mid-sagitally, 3 mm anterior to bregma. […] Sutures were used to close the incision after bleeding ceased. Animals were placed in individual heated, clean recovery cages until they awakened, and were returned to clean individual home cages with accessible moistened food pellets. Sham animals were anesthetized, and an incision was made at the top of the head. The fascia was cleared to expose bregma, then the incision was sutured closed. Sham surgeries were matched to lesion surgeries for all experimental conditions.
(§5) Sham (S) and lesion (L) animals were randomly assigned to one of three treatment groups: vehicle (VS, VL), acute withdrawal (AWS, AWL), and tapered withdrawal (TWS, TWL). […] Tapering was induced as halved dosages over the last two days of treatment. Dilutions for TW treatments were made with HBC stock. […]
(§6) Brains for protein analysis were sectioned into the immediate area of the lesion and snap frozen in 2-methyl-butane chilled on dry ice. […] The amount of brain homogenate needed to standardize samples to 2 μg/μL for Western blotting was calculated from the results of these assays. […]

Another data set deals with BDNF. Put plainly: Example 4: Western blotting densitometry, BDNF. It counts as in vivo, Sprague-Dawley rats.
From the text: as §3, §4, §5, §6
On the technique in general: In western blotting, separated proteins are transferred to a membrane and probed.

Data set [4] deals with HSP70. Put plainly: Example 3: Western blot of brain tissue, HSP70. It counts as in vivo, Sprague-Dawley rats. Particulars: TWI vs AWI vs VI, 3 weeks post-injury. The method, then:
as §1

For data set [5], the system named is traumatic brain injury. Put plainly: Example 2: dose response, Morris water maze after TBI, cyclodextrin vehicle. The class given is in vivo. The method, then:
Beginning one week after surgery, spatial learning ability was assessed in the Morris water maze (MWM) task described previously. Each animal was tested for a total of 10 days in two 5-day trial blocks (acquisition and retention respectively). Animals were placed in the pool (nose facing the pool-wall) at one of four randomly determined starting positions (e.g.: N, S, E, W). Each rat was allowed to swim freely in the pool until it found the hidden platform or until 90 seconds had elapsed. […] Once on the platform, animals were allowed to rest for 10 seconds and then removed from the pool and placed near a heat lamp for warmth. Each rat was given two trials per day with a 20-second intertrial interval (ITI). The dependent measures for this task were latency to find the hidden platform and swim strategy (e.g., percent of time spent in the inner vs. outer annuli). Swim speed measures were recorded daily in order to delineate motor dysfunction from learning impairment.
as §2

With `CC(=O)[C@H]1CC[C@H]2[C@@H]3CCC4=CC(=O)CC[C@]4(C)[C@H]3CC[C@]12C` [progesterone, pregn-4-ene-3,20-dione], in data set [1], the lesion volume result is given as “smallest lesion volume”. Besides, the “cell damage and neurological deficit” value with ischemic injury is “reduce cell damage and neurological deficit”. The “sticker removal task (sensory neglect), initial” value in the data set with traumatic brain injury [2] (all doses (8, 16, 32 mg/kg), initially) was “initially produce behavioral recovery”. Besides, the “sticker removal task (sensory neglect), later course” value in the data set with traumatic brain injury [2] (high dose (32 mg/kg)) was “degraded to lesion control levels”; in the data set on traumatic brain injury [2] (moderate dose (16 mg/kg), day 21 post-injury), “improved to sham levels by day 21 post-injury”. Besides, the HSP70 levels entry was “increased HSP70 compared to vehicle-treated animals” in the data set on HSP70 [3] (all progesterone treatment vs vehicle-treated animals, three weeks post-injury); “Sham animals did not display any differences between treatment groups” in the data set on HSP70 [3] (sham animals (AWS, TWS, VS)); “increased in TWL animals” in the data set on HSP70 [3] (tapered withdrawal, lesion (TWL) vs VL and AWL, three weeks post-injury). Also, the BDNF levels result is “AWL over VL” in the data set on BDNF (acute withdrawal, lesion (AWL) vs VL, three weeks post-injury); “Sham animals did not display any differences between treatment groups” in the data set with BDNF (sham animals (AWS, TWS, VS)); “increase in BDNF levels for TWL over AWL” in the data set with BDNF (tapered withdrawal, lesion (TWL) vs AWL, three weeks post-injury). Moreover, the HSP70 expression result in the data set on HSP70 [4] is recorded as “increased for TWI over AWI over VI at 3 weeks post-injury”. For the same molecule, the figures for the “Morris water maze performance” value with traumatic brain injury [5] (high dose 32 mg/kg in a cyclodextrin-containing vehicle), in the data set with traumatic brain injury [5] (low dose 8 mg/kg in a cyclodextrin-containing vehicle) and in the data set with traumatic brain injury [5] (moderate dose 16 mg/kg in a cyclodextrin-containing vehicle) were “did not show any beneficial effect”, “consistent improvement in Morris water maze performance” and “consistent improvement in Morris water maze performance”, respectively.
